This is an account of results in patent US12600709B2, “Nonpeptide somatostatin type 5 receptor agonists and uses thereof” (Crinetics Pharmaceuticals, Inc., priority 2019, dated 2026).

Where only a bound is given, the exact number is not on record here.

T1 sequence (P35346 whole entry): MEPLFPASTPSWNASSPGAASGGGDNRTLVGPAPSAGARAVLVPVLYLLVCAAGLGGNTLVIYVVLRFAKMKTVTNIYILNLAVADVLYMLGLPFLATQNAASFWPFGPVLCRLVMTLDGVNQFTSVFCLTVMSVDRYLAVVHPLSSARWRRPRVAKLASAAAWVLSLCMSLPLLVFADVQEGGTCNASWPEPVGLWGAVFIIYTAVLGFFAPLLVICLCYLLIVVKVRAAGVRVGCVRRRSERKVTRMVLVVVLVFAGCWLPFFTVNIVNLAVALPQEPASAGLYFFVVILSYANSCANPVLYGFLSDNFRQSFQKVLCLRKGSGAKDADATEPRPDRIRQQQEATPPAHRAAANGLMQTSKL

The assay has as its target T1, human somatostatin receptor subtype 5 (Homo sapiens, UniProt P35346).
T1 construct: expressed in transfected cells
In words: cAMP assay for SST5R (inhibition of cAMP in CHO-K1 cells). Type of assay: cell-based. Particulars: Table A; inhibition of cAMP via human SST5 receptor; read-out: SST5 potency. The text has this: General overview: All five SSTR subtypes are Gi coupled G-protein coupled receptors (GPCRs) that lead to decreases in intracellular cyclic AMP (cAMP) when activated by an agonist. Therefore, measurement of intracellular cAMP levels can be used to assess whether compounds of the invention are agonists of SSTR subtypes (John Kelly, Troy Stevens, W. Joseph Thompson, and Roland Seifert, Current Protocols in Pharmacology, 2005, 2.2.1-2.2). One example of an intracellular cAMP assay is described below.
cAMP Assay Protocol for SST5R:
Four days prior to the assay, 2,000 Chinese hamster ovary cells (CHO-K1, ATCC #CCL-61) stably expressing the human somatostatin receptor subtype 5 are plated in each well of a 96-well tissue culture-treated plate in Ham's F12 growth media (ThermoFisher #10-080-CM) supplemented with 10% donor bovine serum (Gemini Bio-Products #100-506), 100 U/mL penicillin; 100 µg/mL streptomycin; 2 mM L-glutamine (Gemini Bio-Products #400-110) and 0.25 mg/mL G418 Sulfate (GoldBio #108321-42-2). The cells are cultured at 37° C., 5% CO2 and 95% humidity. On the day of the assay, the media is aspirated and the cells are treated with 50 μL of 1.6 μM NKH477 (Sigma #N3290) plus various dilutions of compounds of the invention in assay buffer [1× Hank's Balanced Salt Solution (ThermoFisher #SH3058802), 0.5 mM HEPES pH 7.4, 0.1% bovine serum albumin, 0.2 mM 3-Isobutyl-1-methylxanthine (IBMX, VWR #200002-790)]. The cells are incubated for 20 minutes at 37° C. […] The cells are treated with 50 μL of lysis buffer (HRTF cAMP kit, Cisbio) for 30 minutes and then the lysate is diluted to 250 μL with assay buffer. The lysate is transferred to 384-well plates and cAMP detection and visualization antibodies are added and incubated for 1-24 hours at room temperature. The time-resolved fluorescent signal is read with a Tecan M1000Pro multiplate reader. The intracellular cAMP concentrations are calculated by regression to a standard curve and are plotted vs. the concentration of the compounds of the invention and the EC50 of the compounds are calculated using standard methods. All data manipulations are in GraphPad Prism v6 or v7.
On the technique in general: cAMP levels reflect the balance of adenylyl cyclase and phosphodiesterase activity.
On to `CC(C)CNC(=O)c1cncc(-c2cc(F)cc(F)c2)c1N1CC[C@](C)(N)C1` [1-46, 4-[(3S)-3-amino-3-methylpyrrolidin-1-yl]-5-(3,5-difluorophenyl)-N-(2-methylpropyl)pyridine-3-carboxamide], for which the EC50 was below 10 nM. As to `C[C@]1(N)CCN(c2c(C(=O)NCC3CC(F)(F)C3)cncc2-c2cc(F)cc(F)c2)C1` [1-50, 4-[(3S)-3-amino-3-methylpyrrolidin-1-yl]-N-[(3,3-difluorocyclobutyl)methyl]-5-(3,5-difluorophenyl)pyridine-3-carboxamide], the EC50 was below 10 nM. Take `C[C@@H](NC(=O)c1cncc(-c2cc(F)cc(F)c2)c1N1CC[C@](C)(N)C1)C(F)(F)F` [1-53, 4-[(3S)-3-amino-3-methylpyrrolidin-1-yl]-5-(3,5-difluorophenyl)-N-[(2R)-1,1,1-trifluoropropan-2-yl]pyridine-3-carboxamide]: the EC50 was below 10 nM. As to `C[C@]1(N)CCN(c2c(C(=O)N[C@H]3C[C@H](F)C3)cncc2-c2cc(F)cc(F)c2)C1` [1-55], the EC50 is below 10 nM.

For the compound `C[C@]1(N)CCN(c2c(C(=O)NC(C3CCC3)C(F)(F)F)cncc2-c2cc(F)cc(F)c2)C1` (stereo partly drawn) [1-56, 4-[(3S)-3-amino-3-methylpyrrolidin-1-yl]-N-(1-cyclobutyl-2,2,2-trifluoroethyl)-5-(3,5-difluorophenyl)pyridine-3-carboxamide], the EC50 is below 10 nM. For the compound `C[C@]1(N)CCN(c2c(C(=O)N[C@H]3C[C@@H](F)C3)cncc2-c2cc(F)cc(F)c2)C1` [1-59, 4-[(3S)-3-amino-3-methylpyrrolidin-1-yl]-5-(3,5-difluorophenyl)-N-[cis-3-fluorocyclobutyl]pyridine-3-carboxamide], the EC50 was below 10 nM. For the compound `CC(CC(F)(F)F)NC(=O)c1cncc(-c2cc(F)cc(F)c2)c1N1CC[C@](C)(N)C1` (stereo partly drawn) [1-60, 4-[(3S)-3-amino-3-methylpyrrolidin-1-yl]-5-(3,5-difluorophenyl)-N-(4,4,4-trifluorobutan-2-yl)pyridine-3-carboxamide], the EC50 was below 10 nM. Take `CC(F)(F)CNC(=O)c1cncc(-c2cc(F)cc(F)c2)c1N1CC[C@](C)(N)C1` [1-62, 4-[(3S)-3-amino-3-methylpyrrolidin-1-yl]-5-(3,5-difluorophenyl)-N-(2,2-difluoropropyl)pyridine-3-carboxamide]: the EC50 is below 10 nM.

As for `CC(N)C1CN(c2c(C(=O)NC34CC(C3)C4)cncc2-c2cc(F)cc(F)c2)C1` (stereo not drawn) [1-63, 4-[3-(1-aminoethyl)azetidin-1-yl]-N-{bicyclo[1.1.1]pentan-1-yl}-5-(3,5-difluorophenyl)pyridine-3-carboxamide], the EC50 was 10 to 100 nM. In the case of `N#Cc1ncc(C(=O)NC23CC(C2)C3)c(N2CC[C@H](N)C2)c1-c1cccc(F)c1` [1-65, 4-[(3S)-3-aminopyrrolidin-1-yl]-N-{bicyclo[1.1.1]pentan-1-yl}-6-cyano-5-(3-fluorophenyl)pyridine-3-carboxamide], the EC50 was below 10 nM. On to `C[C@]1(N)CCN(c2cc(C#N)ncc2C(=O)NC23CC(C2)C3)C1` [1-75, 4-[(3S)-3-amino-3-methylpyrrolidin-1-yl]-N-{bicyclo[1.1.1]pentan-1-yl}-6-cyanopyridine-3-carboxamide], for which the EC50 fell in the range of 100 to 1000 nM. For `N#Cc1ncc(C(=O)N2CCCCC2)c(N2CC[C@H](N)C2)c1-c1cc(F)cc(F)c1` [1-80, 4-[(3S)-3-aminopyrrolidin-1-yl]-3-(3,5-difluorophenyl)-5-(piperidine-1-carbonyl)pyridine-2-carbonitrile], the EC50 lay within 100 to 1000 nM. Regarding `N#Cc1ncc(C(=O)NC2CCCC2)c(N2CC[C@H](N)C2)c1-c1cc(F)cc(F)c1` [1-82, 4-[(3S)-3-aminopyrrolidin-1-yl]-6-cyano-N-cyclopentyl-5-(3,5-difluorophenyl)pyridine-3-carboxamide], the EC50 is below 10 nM. In the case of `N#Cc1ncc(C(=O)NC23CC(C2)C3)c(N2CC[C@H](N)C2)c1-c1cccc(Cl)c1` [1-84, 4-[(3S)-3-aminopyrrolidin-1-yl]-N-{bicyclo[1.1.1]pentan-1-yl}-5-(3-chlorophenyl)-6-cyanopyridine-3-carboxamide], the EC50 is below 10 nM. With `C[C@]1(N)CCN(c2c(C(=O)NC3CCOCC3)cnc(C#N)c2-c2cc(F)cc(F)c2)C1` [1-88, 4-[(3S)-3-amino-3-methylpyrrolidin-1-yl]-6-cyano-5-(3,5-difluorophenyl)-N-(oxan-4-yl)pyridine-3-carboxamide] the figure was below 10 nM; with `C[C@]1(N)CCN(c2c(C(=O)NC3CCCOC3)cnc(C#N)c2-c2cc(F)cc(F)c2)C1` (stereo partly drawn) [1-89, 4-[(3S)-3-amino-3-methylpyrrolidin-1-yl]-6-cyano-5-(3,5-difluorophenyl)-N-(oxan-3-yl)pyridine-3-carboxamide], below 10 nM; with `C[C@H](NC(=O)c1cnc(C#N)c(-c2cc(F)cc(F)c2)c1N1CC[C@H](N)C1)c1ccccn1` [1-95, 4-[(3S)-3-aminopyrrolidin-1-yl]-6-cyano-5-(3,5-difluorophenyl)-N-[(1S)-1-(pyridin-2-yl)ethyl]pyridine-3-carboxamide], below 10 nM.

As for `C[C@H](NC(=O)c1cnc(C#N)c(-c2cc(F)cc(F)c2)c1N1CC[C@H](N)C1)c1ccccc1` [1-97, 4-[(3S)-3-aminopyrrolidin-1-yl]-6-cyano-5-(3,5-difluorophenyl)-N-[(1S)-1-phenylethyl]pyridine-3-carboxamide], the EC50 is below 10 nM. For `Cn1ccc(CNC(=O)c2cnc(C#N)c(-c3cc(F)cc(F)c3)c2N2CC[C@](C)(N)C2)n1` [1-105, 4-[(3S)-3-amino-3-methylpyrrolidin-1-yl]-6-cyano-5-(3,5-difluorophenyl)-N-[(1-methyl-1H-pyrazol-3-yl)methyl]pyridine-3-carboxamide], the EC50 fell in the range of 10 to 100 nM. Take `Cn1ccnc1CNC(=O)c1cnc(C#N)c(-c2cc(F)cc(F)c2)c1N1CC[C@](C)(N)C1` [1-106, 4-[(3S)-3-amino-3-methylpyrrolidin-1-yl]-6-cyano-5-(3,5-difluorophenyl)-N-[(1-methyl-1H-imidazol-2-yl)methyl]pyridine-3-carboxamide]: the EC50 is 10 to 100 nM. In the case of `Cn1cc(CNC(=O)c2cnc(C#N)c(-c3cc(F)cc(F)c3)c2N2CC[C@](C)(N)C2)cn1` [1-107, 4-[(3S)-3-amino-3-methylpyrrolidin-1-yl]-6-cyano-5-(3,5-difluorophenyl)-N-[(1-methyl-1H-pyrazol-4-yl)methyl]pyridine-3-carboxamide], the EC50 is 10 to 100 nM. For the compound `COC[C@]1(N)CCN(c2c(C(=O)N[C@@H](C)C3CC3)cnc(C#N)c2-c2cc(F)cc(F)c2)C1` [1-117, 4-[(3S)-3-amino-3-(methoxymethyl)pyrrolidin-1-yl]-6-cyano-N-[(1S)-1-cyclopropylethyl]-5-(3,5-difluorophenyl)pyridine-3-carboxamide], the EC50 is 100 to 1000 nM. With `Cc1cc(-c2cncc(C(=O)N[C@@H](C)C3CC3)c2N2CC[C@](C)(N)C2)cc(C)n1` [1-131, 4-[(3S)-3-amino-3-methylpyrrolidin-1-yl]-N-[(1S)-1-cyclopropylethyl]-2′,6′-dimethyl-[3,4′-bipyridine]-5-carboxamide] the figure was below 10 nM. The figure for `CC(NC(=O)c1cnc(C#N)c(-c2cc(F)cc(F)c2)c1N1CC[C@](C)(N)C1)c1cn(C)nn1` (stereo partly drawn) [1-133, 4-[(3S)-3-amino-3-methylpyrrolidin-1-yl]-6-cyano-5-(3,5-difluorophenyl)-N-[1-(1-methyl-1H-1,2,3-triazol-4-yl)ethyl]pyridine-3-carboxamide] is 100 to 1000 nM; for `C[C@H](NC(=O)c1cnc(C#N)c(-c2cnoc2)c1N1CC[C@](C)(N)C1)C1CC1` [1-134, 4-[(3S)-3-amino-3-methylpyrrolidin-1-yl]-6-cyano-N-[(1S)-1-cyclopropylethyl]-5-(1,2-oxazol-4-yl)pyridine-3-carboxamide] it is below 10 nM. As to `C[C@H](NC(=O)c1cnc(C#N)c(-c2cc(F)cc(Cl)c2)c1N1C[C@@H](N)[C@H](F)C1)C1CC1` [1-138, 4-[(3R,4R)-3-amino-4-fluoropyrrolidin-1-yl]-5-(3-chloro-5-fluorophenyl)-6-cyano-N-[(1S)-1-cyclopropylethyl]pyridine-3-carboxamide], the EC50 was below 10 nM. As for `COc1ncc(C(=O)N[C@@H](C)C(F)(F)F)c(N2CC[C@](C)(N)C2)c1-c1cc(F)cc(F)c1` [1-140, 4-[(3S)-3-amino-3-methylpyrrolidin-1-yl]-5-(3,5-difluorophenyl)-6-methoxy-N-[(2S)-1,1,1-trifluoropropan-2-yl]pyridine-3-carboxamide], the EC50 was below 10 nM.
